Laboratory results from patent US10028966B2 (Avalyn Pharma Inc., priority 2014, dated 2018).
≈ marks a conversion by molar mass, not a printed value.

Legend:
[1] = system: inflammasome activation in 264.7 macrophages; assay: Inflammasome first signal activation (LPS, secreted IL-1β); format: cell-based; conditions: Macrophage; read-out: fifty-percent inhibitory concentration (IC50), first-signal inflammasome activation
[2] = Extended-duration intratracheal and oral pharmacokinetic study; format: in vivo, Wistar rats; conditions: for AUC(0-t) / Cmax: Wistar, rat, plasma
Protocol: Previous intratracheal aerosol delivery (see Example 6) was performed as a single bolus instillation just above the first bifurcation of the lung. For in vivo efficacy studies, an attempt was made to mimic tidal inhaled breathing by splitting the dose into equal parts and administering as before, but over a 2 minute period. […] Doses were prepared in 0.45% sodium chloride solution and were administered as described in Table 21.
Plasma samples and entire lungs were taken at pre-dose, 2, 4, 6, 10, 30, 60 and 120 minutes post dosing. Materials were extracted and pirfenidone quantitated as mcg/mL plasma and μg/gram lung tissue.

2D6 = target: T1, 2D6 (Homo sapiens, UniProt P10635); conditions: hepatic microsomes; cited from earlier work
T1 construct: In vitro metabolism studies with hepatic microsomes; from tissue; host or cells: hepatic microsomes
T1 sequence (P10635 whole entry): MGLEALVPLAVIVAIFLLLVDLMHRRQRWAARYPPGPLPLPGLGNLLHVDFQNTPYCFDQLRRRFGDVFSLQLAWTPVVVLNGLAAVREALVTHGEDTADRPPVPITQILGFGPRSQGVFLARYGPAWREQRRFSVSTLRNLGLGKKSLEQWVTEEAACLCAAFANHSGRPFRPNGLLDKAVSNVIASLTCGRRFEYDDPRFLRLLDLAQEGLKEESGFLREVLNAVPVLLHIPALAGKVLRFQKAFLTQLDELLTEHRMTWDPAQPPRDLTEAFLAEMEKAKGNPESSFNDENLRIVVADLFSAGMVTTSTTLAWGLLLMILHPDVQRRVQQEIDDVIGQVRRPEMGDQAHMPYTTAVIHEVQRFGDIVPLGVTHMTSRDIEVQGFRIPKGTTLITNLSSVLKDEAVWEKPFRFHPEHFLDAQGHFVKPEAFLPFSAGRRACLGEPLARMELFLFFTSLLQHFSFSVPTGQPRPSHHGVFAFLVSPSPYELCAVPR

CYP1A2 = target: T2, CYP1A2 (Homo sapiens, UniProt P05177); conditions: hepatic microsomes; cited from earlier work
T2 construct: In vitro metabolism studies with hepatic microsomes; from tissue; host or cells: hepatic microsomes
T2 sequence (P05177 whole entry): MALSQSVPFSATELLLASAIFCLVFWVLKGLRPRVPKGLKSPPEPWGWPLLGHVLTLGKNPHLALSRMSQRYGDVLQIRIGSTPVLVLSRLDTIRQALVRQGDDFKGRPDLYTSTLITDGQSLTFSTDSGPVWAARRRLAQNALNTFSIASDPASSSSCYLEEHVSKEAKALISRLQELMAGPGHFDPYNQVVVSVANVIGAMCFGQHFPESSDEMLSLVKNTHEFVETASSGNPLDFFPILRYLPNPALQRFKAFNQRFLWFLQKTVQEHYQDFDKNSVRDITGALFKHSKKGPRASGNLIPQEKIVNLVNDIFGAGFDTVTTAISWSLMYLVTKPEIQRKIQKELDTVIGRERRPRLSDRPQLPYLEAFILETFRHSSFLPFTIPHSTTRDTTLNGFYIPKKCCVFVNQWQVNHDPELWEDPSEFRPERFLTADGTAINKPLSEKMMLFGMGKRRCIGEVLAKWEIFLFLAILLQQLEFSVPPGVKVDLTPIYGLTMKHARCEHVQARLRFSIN

[3] = in vivo; cited from earlier work
[4] = system: inflammasome activation in 264.7 macrophages; assay: Inflammasome second signal activation (ATP, secreted IL-1β); format: cell-based; conditions: for IL-1β: LPS +, ATP +; for IC50: Macrophage
[5] = Aqueous solubility, tonicity salt, dissolution and taste observations on pirfenidone formulations; format: physicochemical
Protocol: However, at this (and lower) concentration it was determined that salt addition was required to improve acute tolerability upon inhalation of a nebulized solution (otherwise a hypotonic solution). To address tonicity, NaCl or MgCl2 were added. […] This effect was not observed at ˜pH 8.

[6] = Buffer and pH effects study: pirfenidone saturation solubility; format: physicochemical; conditions: thermodynamic from solid
Protocol: The sample was agitated at ambient temperature overnight. The sample was visually inspected, appearance recorded, centrifuged to sediment any un-dissolved material, and the supernatant withdrawn via syringe through a 0.22 μm PVDF filter. […] The remaining filtered sample was split into three equal volumes in glass vials and placed at 25° C./60 RH, 40° C./75 RH and refrigeration. Samples were wrapped in aluminum foil to reduce light exposure. After the first night of incubation, samples were briefly visually inspected for any signs of discoloration or precipitate formation.

2C19 = target: T3, 2C19 (Homo sapiens, UniProt P33261); conditions: hepatic microsomes; cited from earlier work
T3 construct: In vitro metabolism studies with hepatic microsomes; from tissue; host or cells: hepatic microsomes
T3 sequence (P33261 whole entry): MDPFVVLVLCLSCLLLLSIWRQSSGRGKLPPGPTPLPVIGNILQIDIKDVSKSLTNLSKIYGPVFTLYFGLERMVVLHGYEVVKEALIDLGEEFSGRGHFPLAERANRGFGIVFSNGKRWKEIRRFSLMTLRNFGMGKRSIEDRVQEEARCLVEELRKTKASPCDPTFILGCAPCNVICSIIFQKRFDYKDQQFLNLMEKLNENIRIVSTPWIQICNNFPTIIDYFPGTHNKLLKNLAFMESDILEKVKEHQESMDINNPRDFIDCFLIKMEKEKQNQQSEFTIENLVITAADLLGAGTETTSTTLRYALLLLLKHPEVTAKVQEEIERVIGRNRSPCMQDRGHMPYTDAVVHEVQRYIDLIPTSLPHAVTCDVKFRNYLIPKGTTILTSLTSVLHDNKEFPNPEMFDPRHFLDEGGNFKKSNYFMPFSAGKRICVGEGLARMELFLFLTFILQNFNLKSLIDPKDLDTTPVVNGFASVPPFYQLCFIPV

[7] = inhaled or intranasal, intratracheal aerosol 2.5 mg/kg
[8] = inhaled or intranasal, intratracheal aerosol 5 mg/kg
[9] = inhaled or intranasal, intratracheal aerosol 10 mg/kg
[10] = intratracheal aerosol 2.5 mg/kg

Question: With `Cc1ccc(=O)n(-c2ccccc2)c1` [pirfenidone, 5-methyl-1-phenyl-2-(1H)-pyridone] as the molecule, how does the IC50 [1] read?
Answer: ~25 µg/mL (≈ 0.135 mM)

Question: And the “Lung Tissue Cmax” value ([2]; 30 mg/kg PO, rat (Table 22))?
Answer: ~10 µg/mL

Question: What about the AUC(0-t) [2, 7] of the same molecule?
Answer: 3200 ng·h/mL

Question: What about the Cmax [2, 7] of the same molecule?
Answer: 3400 ng/mL

Question: What about the AUC(0-t) [2, 8] of the same molecule?
Answer: 5800 ng·h/mL

Question: What about the Cmax [2, 8] of the same molecule?
Answer: 8800 ng/mL

Question: And the AUC(0-t) [2, 9]?
Answer: 14600 ng·h/mL

Question: What about the Cmax [2, 9] of the same molecule?
Answer: 22800 ng/mL

Question: And the AUC(0-t) ([2]; oral gavage 10 mg/kg)?
Answer: 4400 ng·h/mL

Question: What about the Cmax ([2]; oral gavage 10 mg/kg) of the same molecule?
Answer: 3600 ng/mL

Question: And the AUC(0-t) ([2]; oral gavage 30 mg/kg)?
Answer: 12900 ng·h/mL

Question: And the Cmax ([2]; oral gavage 30 mg/kg)?
Answer: 9800 ng/mL

Question: And the AUC(0-t) ([2]; oral gavage 100 mg/kg)?
Answer: 24200 ng·h/mL

Question: And the Cmax ([2]; oral gavage 100 mg/kg)?
Answer: 26300 ng/mL

Question: What about the Lung Tissue AUC(0-2 hr) [2, 10] of the same molecule?
Answer: 3.5 µg·h/g

Question: What about the “Lung Tissue Cmax” value [2, 10] of the same molecule?
Answer: 14.4 μg/gram

Question: What about the Lung Tissue AUC(0-2 hr) ([2]; intratracheal aerosol 5 mg/kg) of the same molecule?
Answer: 6.6 µg·h/g

Question: And the “Lung Tissue Cmax” value ([2]; intratracheal aerosol 5 mg/kg)?
Answer: 27.9 μg/gram

Question: And the Lung Tissue AUC(0-2 hr) ([2]; intratracheal aerosol 10 mg/kg)?
Answer: 14.5 µg·h/g

Question: And the “Lung Tissue Cmax” value ([2]; intratracheal aerosol 10 mg/kg)?
Answer: 61.1 μg/gram

Question: What about the adverse events ([2]; intratracheal aerosol over 2 minutes or oral gavage, Wistar rats) of the same molecule?
Answer: No adverse events were noted

Question: What about the Lung Tissue AUC(0-2 hr) ([2]; oral gavage 10 mg/kg) of the same molecule?
Answer: 4.9 µg·h/g

Question: What about the “Lung Tissue Cmax” value ([2]; oral gavage 10 mg/kg) of the same molecule?
Answer: 3.5 μg/gram

Question: What about the Lung Tissue AUC(0-2 hr) ([2]; oral gavage 30 mg/kg) of the same molecule?
Answer: 13.5 µg·h/g

Question: And the “Lung Tissue Cmax” value ([2]; oral gavage 30 mg/kg)?
Answer: 9.8 μg/gram

Question: And the Lung Tissue AUC(0-2 hr) ([2]; oral gavage 100 mg/kg)?
Answer: 27.9 µg·h/g

Question: What about the “Lung Tissue Cmax” value ([2]; oral gavage 100 mg/kg) of the same molecule?
Answer: 33.6 μg/gram

Question: And the “contribution to pirfenidone metabolism” value (2D6)?
Answer: less than 13%

Question: And the “pirfenidone metabolised via CYP1A2” value (CYP1A2)?
Answer: approximately 48%

Question: What about the “administered pirfenidone excreted in the urine” value [3] of the same molecule?
Answer: about 80%

Question: And the IL-1β ([4]; Longer-term exposure, 40 min > ATP, pirfenidone 5 mcg/mL)?
Answer: 1.4 pg/mL

Question: What about the IL-1β ([4]; Longer-term exposure, 40 min > ATP, pirfenidone 25 mcg/mL) of the same molecule?
Answer: 1.1 pg/mL

Question: And the IL-1β ([4]; Longer-term exposure, 40 min > ATP, pirfenidone 125 mcg/mL)?
Answer: 0.9 pg/mL

Question: And the IL-1β ([4]; Longer-term exposure, 40 min > ATP, pirfenidone 625 mcg/mL)?
Answer: 0.4 pg/mL

Question: And the IC50 ([4]; 40 min, second (40 minute) sampling point alone, short-term exposure)?
Answer: ~25 µg/mL (≈ 0.135 mM)

Question: And the IC50 ([4]; sum of short-term sampling points and longer-term sampling point)?
Answer: ~625 µg/mL (≈ 3.37 mM)

Question: And the IL-1β ([4]; Short-term exposure, 10 + 40 min > ATP (sum of sampling points), pirfenidone 5 mcg/mL)?
Answer: 1.1 pg/mL

Question: And the IL-1β ([4]; Short-term exposure, 10 + 40 min > ATP (sum of sampling points), pirfenidone 25 mcg/mL)?
Answer: 1.0 pg/mL

Question: And the IL-1β ([4]; Short-term exposure, 10 + 40 min > ATP (sum of sampling points), pirfenidone 125 mcg/mL)?
Answer: 1.0 pg/mL

Question: What about the IL-1β ([4]; Short-term exposure, 10 + 40 min > ATP (sum of sampling points), pirfenidone 625 mcg/mL) of the same molecule?
Answer: 0.6 pg/mL

Question: What about the IL-1β ([4]; Short-term exposure, 10 min > ATP, pirfenidone 5 mcg/mL) of the same molecule?
Answer: 81.5 pg/mL

Question: What about the IL-1β ([4]; Short-term exposure, 10 min > ATP, pirfenidone 25 mcg/mL) of the same molecule?
Answer: 100.0 pg/mL

Question: And the IL-1β ([4]; Short-term exposure, 10 min > ATP, pirfenidone 125 mcg/mL)?
Answer: 118.7 pg/mL

Question: And the IL-1β ([4]; Short-term exposure, 10 min > ATP, pirfenidone 625 mcg/mL)?
Answer: 66.3 pg/mL

Question: What about the IL-1β ([4]; Short-term exposure, 40 min > ATP, pirfenidone 5 mcg/mL) of the same molecule?
Answer: 95.8 pg/mL

Question: What about the IL-1β ([4]; Short-term exposure, 40 min > ATP, pirfenidone 25 mcg/mL) of the same molecule?
Answer: 50.4 pg/mL

Question: And the IL-1β ([4]; Short-term exposure, 40 min > ATP, pirfenidone 125 mcg/mL)?
Answer: 36.3 pg/mL

Question: And the IL-1β ([4]; Short-term exposure, 40 min > ATP, pirfenidone 625 mcg/mL)?
Answer: 27.3 pg/mL

Question: What about the “formulation stability on storage” value ([5]; MgCl2 added, 1:1 and 1:2 mole ratios of magnesium to pirfenidone) of the same molecule?
Answer: maintained a stable, soluble solution

Question: What about the solubility ([5]; aqueous solution, aqueous buffer, across a pH range of about 4.0 to about 8.0) of the same molecule?
Answer: ~17 mg/mL

Question: What about the “formulation stability on storage” value ([5]; ~17 mg/mL pirfenidone, NaCl added for tonicity, ambient storage) of the same molecule?
Answer: precipitation upon ambient storage

Question: What about the solubility ([6]; citrate buffer, pH 4, aqueous buffer, Citrate buffer 5 mM, pH 4, ambient temperature overnight) of the same molecule?
Answer: 18.4 mg/mL (≈ 99.3 mM)

Question: What about the solubility ([6]; citrate buffer, pH 4, aqueous buffer, Citrate buffer 50 mM, pH 4, ambient temperature overnight) of the same molecule?
Answer: 18.1 mg/mL (≈ 97.7 mM)

Question: And the solubility ([6]; citrate buffer, pH 6, aqueous buffer, Citrate buffer 5 mM, pH 6, ambient temperature overnight)?
Answer: 18.4 mg/mL (≈ 99.3 mM)

Question: What about the solubility ([6]; citrate buffer, pH 6, aqueous buffer, Citrate buffer 50 mM, pH 6, ambient temperature overnight) of the same molecule?
Answer: 16.4 mg/mL (≈ 88.5 mM)

Question: And the solubility ([6]; phosphate buffer, pH 6, aqueous buffer, Phosphate buffer 5 mM, pH 6, ambient temperature overnight)?
Answer: 18.3 mg/mL (≈ 98.8 mM)

Question: What about the solubility ([6]; phosphate buffer, pH 6, aqueous buffer, Phosphate buffer 50 mM, pH 6, ambient temperature overnight) of the same molecule?
Answer: 17.2 mg/mL (≈ 92.9 mM)

Question: And the solubility ([6]; phosphate buffer, pH 7.5, aqueous buffer, Phosphate buffer 5 mM, pH 7.5, ambient temperature overnight)?
Answer: 19 mg/mL (≈ 103 mM)

Question: What about the solubility ([6]; phosphate buffer, pH 7.5, aqueous buffer, Phosphate buffer 50 mM, pH 7.5, ambient temperature overnight) of the same molecule?
Answer: 16.3 mg/mL (≈ 88 mM)

Question: What about the solubility ([6]; water, pH 7.9, water, buffer 0 mM, pH 7.9, ambient temperature overnight) of the same molecule?
Answer: 18.4 mg/mL (≈ 99.3 mM)

Question: What about the “contribution to pirfenidone metabolism” value (2C19) of the same molecule?
Answer: less than 13%
